Data on 19 molecules can be found in PubChem BioAssay (NCI).

The structures appear in SMILES notation. “And” between values parts separate entries of the source, which are not always exact repeats. Identical values can stand only once.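 48-hour exposure; five concentrations; linearly interpolated endpoints. Definition used: TGI = concentration required for complete inhibition of growth.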

Among the test systems are M14 melanoma; 786-0 renal; SN12C renal; RXF 393 renal; EKVX NSCLC; SNB-19 CNS; OVCAR-5 ovarian; MDA-N; UO-31 renal; CAKI-1 renal; HS 578T breast; MALME-3M melanoma.
Holding throughout (assay): growth of human tumour cells (NCI), 48 h

As for `Cc1ccc(S(=O)(=O)N/N=C2\C=C[C@]3(CC2)C(=O)N(C)c2ccccc23)cc1`, the TGI in the experiment on M14 melanoma, in the experiment with 786-0 renal, in the experiment with SN12C renal, in the experiment with RXF 393 renal, in the experiment on EKVX NSCLC and in the experiment with SNB-19 CNS was > 100 µM throughout. In addition, the TGI in the experiment on OVCAR-5 ovarian, in the experiment with MDA-N, in the experiment with UO-31 renal, with CAKI-1 renal and in the experiment on HS 578T breast was > 100 µM in each case.
On to `O=C(/C=C/c1ccc(Cl)c(Cl)c1)Oc1ccc(/C=C2\CCCCC2=O)cc1`, for which the TGI in the experiment on M14 melanoma, in the experiment on 786-0 renal, with SN12C renal, in the experiment with EKVX NSCLC, with SNB-19 CNS and in the experiment on OVCAR-5 ovarian was > 100 µM in each case. Further, the TGI in the experiment on MDA-N, in the experiment with UO-31 renal, in the experiment on CAKI-1 renal and with HS 578T breast was > 100 µM in each case.
For `NC(=O)N(O)c1cccc(Br)c1`, the TGI in the experiment on M14 melanoma, in the experiment on 786-0 renal, with SN12C renal, in the experiment on RXF 393 renal, with EKVX NSCLC and with SNB-19 CNS was > 100 µM in each case. The TGI in the experiment on OVCAR-5 ovarian, in the experiment with MDA-N, in the experiment on UO-31 renal, in the experiment with CAKI-1 renal and in the experiment with HS 578T breast was > 100 µM throughout.
Regarding `CC(=O)c1cccc(NC2C(N)C(NC(=O)N(C)C)(C(C)O)C(C)(O)C2(O)COC(=O)c2c(C)cccc2O)c1` (configuration not stated), the TGI with M14 melanoma was 0.3 µM; with 786-0 renal, 0.0146 µM; in the experiment on SN12C renal it was 0.106 µM; in the experiment on EKVX NSCLC, 0.08 µM; in the experiment on SNB-19 CNS it was 0.0992 µM and 0.936 µM; in the experiment on OVCAR-5 ovarian it was 0.0457 µM and 0.186 µM. In addition, the TGI is 0.0135 µM with MDA-N; 0.194 µM and 0.257 µM with UO-31 renal; 0.0235 µM in the experiment with CAKI-1 renal; 0.0122 µM in the experiment on HS 578T breast.
Regarding `CC1(C)CC(=O)c2c(nc3ccc4ccccc4c3c2-c2ccc(NC(=O)CCCCC(=O)Nc3ccc(-c4c5c(nc6ccc7ccccc7c46)CC(C)(C)CC5=O)cc3)cc2)C1`, the TGI in the experiment with M14 melanoma, in the experiment with 786-0 renal, in the experiment on SN12C renal, in the experiment with EKVX NSCLC, with SNB-19 CNS and with OVCAR-5 ovarian was > 100 µM each time. Besides, the TGI in the experiment on MDA-N, in the experiment on UO-31 renal, in the experiment with CAKI-1 renal and in the experiment on HS 578T breast was > 100 µM throughout.
Consider `S=C(Nc1ccc(Br)cn1)NC12CC3CC(CC(C3)C1)C2`, for which the TGI is > 100 µM in the experiment on M14 melanoma; 21.3 µM in the experiment on 786-0 renal; 37 µM in the experiment on RXF 393 renal; 65 µM in the experiment with EKVX NSCLC; 25.9 µM in the experiment with SNB-19 CNS; 90.7 µM in the experiment with OVCAR-5 ovarian. Besides, the TGI with MDA-N was 47.7 µM; with UO-31 renal, > 100 µM; with MALME-3M melanoma, 58.9 µM; with CAKI-1 renal, > 100 µM.
For `NNC(=O)c1n[nH]nc1SSc1n[nH]nc1C(=O)NN`, the TGI with M14 melanoma, with 786-0 renal, in the experiment with SN12C renal, with RXF 393 renal, in the experiment on EKVX NSCLC and in the experiment with SNB-19 CNS was > 100 µM throughout. In addition, the TGI in the experiment with OVCAR-5 ovarian, with MDA-N, in the experiment on UO-31 renal, in the experiment on CAKI-1 renal and in the experiment with HS 578T breast was > 100 µM in each case.
In the case of `N#Cc1c(C#N)c(SSc2c(C#N)c(C#N)c(N)n2-c2ccccc2)n(-c2ccccc2)c1N`, the TGI in the experiment on SN12C renal was 38.3 µM; in the experiment on RXF 393 renal it was 44.7 µM; in the experiment on EKVX NSCLC, 59.5 µM; with SNB-19 CNS, > 63.1 µM; in the experiment on OVCAR-5 ovarian, > 62.5 µM; in the experiment with MDA-N it was > 56.7 µM. Also, the TGI with UO-31 renal was 3.08 µM; in the experiment with MALME-3M melanoma, 3.26 µM; with CAKI-1 renal, 2.99 µM; with HS 578T breast, 55.2 µM.
`CCOC(=O)CCC(NC(=O)OCc1ccccc1)C(=O)NC(CCC(=O)OCC)C(=O)NC(CCC(=O)OCC)C(=O)NC(CCC(=O)OCC)C(=O)NC(CCC(=O)OCC)C(=O)OCC` (configuration not stated): the TGI with M14 melanoma, in the experiment on 786-0 renal, in the experiment with SN12C renal, in the experiment on RXF 393 renal, in the experiment with EKVX NSCLC and with OVCAR-5 ovarian was > 100 µM each time. The TGI in the experiment on MDA-N, in the experiment on UO-31 renal, in the experiment with MALME-3M melanoma, in the experiment on CAKI-1 renal and in the experiment on HS 578T breast was > 100 µM throughout.
For the molecule `C#CCOC(=O)c1ccccc1OC(C)=O`, the TGI in the experiment with M14 melanoma, in the experiment with 786-0 renal, in the experiment on SN12C renal, with RXF 393 renal, in the experiment with EKVX NSCLC and with SNB-19 CNS was > 100 µM throughout. For the same molecule, the TGI in the experiment on OVCAR-5 ovarian, in the experiment on MDA-N, with UO-31 renal, with CAKI-1 renal and with HS 578T breast was > 100 µM throughout.
Consider `N#Cc1c(-c2ccc(Cl)cc2)c(C#N)c(=O)n(NS(=O)(=O)c2ccccc2)c1-c1ccccc1`, for which the TGI in the experiment on M14 melanoma, in the experiment with 786-0 renal, in the experiment with SN12C renal, in the experiment with RXF 393 renal, in the experiment with SNB-19 CNS and with OVCAR-5 ovarian was > 25 µM in each case. The TGI in the experiment with MDA-N and in the experiment on CAKI-1 renal was > 25 µM each time.
Consider `COc1ccc(C)cc1NC(=S)N/N=C/c1ccc(SC)cc1`, for which the TGI with M14 melanoma was 73.9 µM; with 786-0 renal, > 100 µM; with SN12C renal it was > 100 µM; in the experiment with RXF 393 renal it was > 100 µM; with SNB-19 CNS, > 100 µM; with OVCAR-5 ovarian, > 100 µM. The TGI in the experiment on MDA-N, with UO-31 renal, in the experiment on MALME-3M melanoma, with CAKI-1 renal and in the experiment on HS 578T breast was > 100 µM throughout.
Regarding `CSCCCCCCCCCCOc1ccc(C=C2C(=C(C#N)C#N)c3ccccc3C2=C(C#N)C#N)cc1`, the TGI with M14 melanoma was found to be 32.1 µM; in the experiment with 786-0 renal, 37.4 µM; with RXF 393 renal, 35.1 µM; in the experiment on EKVX NSCLC, 34.5 µM; with OVCAR-5 ovarian it was 30.2 µM; in the experiment with MDA-N, 38.3 µM. In addition, the TGI is 29.9 µM with UO-31 renal, 32.3 µM in the experiment with CAKI-1 renal and 44.6 µM in the experiment on HS 578T breast.
`Cc1cccc2c1C(=O)C(C1OC(=O)c3ccccc31)C2` (configuration not stated): the TGI in the experiment with 786-0 renal, in the experiment on SN12C renal, in the experiment with RXF 393 renal, in the experiment with EKVX NSCLC, with SNB-19 CNS and with OVCAR-5 ovarian was > 100 µM each time. Besides, the TGI in the experiment with MDA-N, in the experiment with UO-31 renal, with MALME-3M melanoma, in the experiment with CAKI-1 renal and with HS 578T breast was > 100 µM throughout.
Turning to `CC(=O)OC[C@@]12C[C@H]3C(=O)C(C)(C)C[C@H]3[C@]1(C)[C@@H](OC(C)=O)[C@]1(O)[C@H]([C@@H](OC(=O)c3ccccc3)[C@@H](C)[C@H]1OC(C)=O)[C@H]2OC(C)=O`, the TGI with M14 melanoma, in the experiment with 786-0 renal, with SN12C renal, in the experiment on RXF 393 renal, in the experiment on EKVX NSCLC and in the experiment on SNB-19 CNS was > 20 µM each time. Also, the TGI with OVCAR-5 ovarian, in the experiment on MDA-N, in the experiment on UO-31 renal, in the experiment on CAKI-1 renal and in the experiment with HS 578T breast was > 20 µM in each case.
With `CCCc1c2c3ccccc3nc-2nc2ccccn12`, the TGI with M14 melanoma was > 100 µM; in the experiment with 786-0 renal, > 100 µM; in the experiment with SN12C renal, > 100 µM; in the experiment with EKVX NSCLC it was > 100 µM; in the experiment on SNB-19 CNS it was > 100 µM; with OVCAR-5 ovarian, 88.1 µM. Also, the TGI with MDA-N, in the experiment with UO-31 renal, in the experiment with MALME-3M melanoma, in the experiment with CAKI-1 renal and with HS 578T breast was > 100 µM each time.
In the case of `CN(/N=C\c1ccc2ccccc2c1)C1=NCCCCN1`, the TGI was 32.8 µM with 786-0 renal; 45.7 µM in the experiment with SN12C renal; 42.6 µM in the experiment with RXF 393 renal; > 100 µM with EKVX NSCLC; > 100 µM with OVCAR-5 ovarian; 31.2 µM in the experiment with MDA-N. Moreover, the TGI in the experiment with UO-31 renal is 55.8 µM; in the experiment with MALME-3M melanoma, 30.1 µM; in the experiment on CAKI-1 renal it was 29.9 µM; with HS 578T breast, 62.3 µM.
Turning to `Cc1nc2c(-c3ccccc3)[nH]c(C)c2c(=O)o1`, the TGI with M14 melanoma, with 786-0 renal, in the experiment with SN12C renal, in the experiment with RXF 393 renal, in the experiment on EKVX NSCLC and in the experiment with SNB-19 CNS was > 100 µM in each case. The TGI with OVCAR-5 ovarian, in the experiment on MDA-N, in the experiment on UO-31 renal, with CAKI-1 renal and in the experiment on HS 578T breast was > 100 µM each time.
For the molecule `CCCCCCCCCN1CCC(=O)C(C(=O)OC)C1` (configuration not stated), the TGI with M14 melanoma worked out at 29.2 µM; with 786-0 renal, 30.6 µM; in the experiment on SN12C renal, 29.5 µM; with RXF 393 renal, 32.7 µM; in the experiment on EKVX NSCLC, 34 µM; with OVCAR-5 ovarian, 29 µM. Further, the TGI in the experiment with MDA-N came out at 29.5 µM; in the experiment with UO-31 renal, 22 µM; in the experiment with CAKI-1 renal, 29.2 µM; with HS 578T breast, 36.6 µM.
